According to patent US20070128217A1 (priority 2003, published 2007):

What was measured:
[1] = system: recombinant human anti-SARS-CoV antibody 03-018; assay type: binding; design: Binding of antibody 03-018 to linear peptides of the N protein of SARS-CoV Urbani / Binding of antibody 03-018 to looped/cyclic peptides of the N protein of SARS-CoV Urbani: unit not given here
[2] = system: antibodies in sera from SARS patients (sera 1a, 1b, 2, 6, 37, 62, London, SARS-yellow, SARS-green); assay type: binding, human; design: Binding of serum 6 to linear peptides of protein X1 of SARS-CoV Urbani / Binding of serum 37 to linear peptides of protein X1 of SARS-CoV Urbani / Binding of serum 6 to looped/cyclic peptide (PEPSCAN-ELISA) / Binding of serum 37 to looped/cyclic peptide (PEPSCAN-ELISA) / Binding of serum 37 to looped/cyclic peptides of protein X1 of SARS-CoV Urbani / Binding of serum 6 to linear peptides of protein X2 / Binding of serum 37 to linear peptides of protein X2 / Binding of serum 37 to looped/cyclic peptides of protein X2 of SARS-CoV Urbani / Binding of serum 6 to linear peptides of protein M of SARS-CoV Urbani / Binding of serum 37 to linear peptides of protein M of SARS-CoV Urbani / Binding of serum 6 to looped/cyclic peptides of protein M of SARS-CoV Urbani / Binding of serum 37 to looped/cyclic peptides of protein M of SARS-CoV Urbani / Binding of serum 6 to linear peptides of protein X3 of SARS-CoV Urbani / Binding of serum 37 to linear peptides of protein X3 of SARS-CoV Urbani / Binding of serum 37 to looped/cyclic peptides of protein X3 of SARS-CoV Urbani / Binding of serum 6 to linear peptides of protein X4 of SARS-CoV Urbani / Binding of serum 37 to linear peptides of protein X4 of SARS-CoV Urbani / Binding of serum 37 to looped/cyclic peptides of protein X4 of SARS-CoV Urbani / Binding of serum 6 to linear peptides of protein X5 of SARS-CoV Urbani / Binding of serum 37 to linear peptides of protein X5 of SARS-CoV Urbani / Binding of serum 37 to looped/cyclic peptides of protein X5 of SARS-CoV Urbani / Binding of serum 6 to linear peptides of protein N of SARS-CoV Urbani / Binding of serum 37 to linear peptides of protein N of SARS-CoV Urbani / Binding of serum 6 to linear peptide (PEPSCAN-ELISA) / Binding of serum 1a to looped/cyclic peptides of protein N of SARS-CoV Urbani / Binding of serum 1b to looped/cyclic peptides of protein N of SARS-CoV Urbani / Binding of serum 2 to looped/cyclic peptides of protein N of SARS-CoV Urbani / Binding of serum 6 to looped/cyclic peptides of protein N of SARS-CoV Urbani / Binding of serum 37 to looped/cyclic peptides of protein N of SARS-CoV Urbani / Binding of serum 62 to looped/cyclic peptides of protein N of SARS-CoV Urbani / Binding of serum London to looped/cyclic peptides of protein N of SARS-CoV Urbani / Binding of serum SARS-green to looped/cyclic peptides of protein N of SARS-CoV Urbani: unit not given here
[3] = system: control sera (pooled serum of ten healthy LUMC hospital workers; commercial negative donor pooled serum from the Dutch bloodbank); assay type: binding, human; design: Binding of Control serum LUMC to linear peptides / Binding of Control serum Blood-bank to linear peptides / Binding of Control serum LUMC to looped peptides / Binding of Control Serum Blood-Bank to Looped peptides / Binding of Control serum LUMC to linear peptides of the protein M of SARS-CoV Urbani / Binding of Control serum Blood-bank to linear peptides of the protein M of SARS-CoV Urbani / Binding of Control serum LUMC to looped peptides of the protein M of SARS-CoV Urbani / Binding of Control Serum Blood-Bank to Looped peptides of the protein M of SARS-CoV Urbani: unit not given here
[4] = system: rabbit serum obtained by immunizing a rabbit with the SARS-CoV strain Frankfurt 1; assay type: binding; design: Binding of a rabbit serum to linear peptides / Binding of a rabbit serum to looped peptides / Rabbit serum linear peptides / Rabbit serum looped peptides / Binding of a rabbit serum to linear peptides of protein N of SARS-CoV Urbani (Rabbit serum linear peptides) / Binding of a rabbit serum to looped/cyclic peptides of protein N of SARS-CoV Urbani (Rabbit serum looped peptides): unit not given here

Row | Sequence | Binding of antibody 03-018 to linear peptides of the N protein of SARS-CoV Urbani [1] | Binding of antibody 03-018 to looped/cyclic peptides of the N protein of SARS-CoV Urbani [1] | Binding of serum 1a to linear peptides of protein N of SARS-CoV Urbani [2] | Binding of serum 1a to looped/cyclic peptides of protein N of SARS-CoV Urbani [2] | Binding of serum 1b to linear peptides of protein N of SARS-CoV Urbani [2] | Binding of serum 1b to looped/cyclic peptides of protein N of SARS-CoV Urbani [2] | Binding of serum 2 to linear peptides of protein N of SARS-CoV Urbani [2] | Binding of serum 2 to looped/cyclic peptides of protein N of SARS-CoV Urbani [2] | Binding of serum 6 to linear peptides of protein N of SARS-CoV Urbani [2] | Binding of serum 6 to looped/cyclic peptides of protein N of SARS-CoV Urbani [2] | Binding of serum 37 to linear peptides of protein N of SARS-CoV Urbani [2] | Binding of serum 37 to looped/cyclic peptides of protein N of SARS-CoV Urbani [2] | Binding of serum 62 to linear peptides of protein N of SARS-CoV Urbani [2] | Binding of serum 62 to looped/cyclic peptides of protein N of SARS-CoV Urbani [2] | Binding of serum London to linear peptides of protein N of SARS-CoV Urbani [2] | Binding of serum London to looped/cyclic peptides of protein N of SARS-CoV Urbani [2] | Binding of serum SARS-green to linear peptides of protein N of SARS-CoV Urbani [2] | Binding of serum SARS-green to looped/cyclic peptides of protein N of SARS-CoV Urbani [2] | Binding of serum SARS-yellow to linear peptides of protein N of SARS-CoV Urbani [2] | Binding of serum SARS-yellow to looped/cyclic peptides of protein N of SARS-CoV Urbani [2] | other results
1 | DNNQNGGRNGARPKQ | 0.2 | 0.3 | 0.2 | 0.4 | 0.1 | 0.2 | 0.3 | 0.4 | 0.1 | 0.3 | 0.6 | 0.6 | 0.7 | 0.4 | 0.5 | 0.4 | 0.6 | 0.4 | 0.6 | 0.4 | Binding of Control Serum Blood-Bank to Looped peptides [3]: 0.7; Binding of Control serum Blood-bank to linear peptides [3]: 0.8; Binding of Control serum LUMC to linear peptides [3]: 0.6; Binding of Control serum LUMC to looped peptides [3]: 0.6; Binding of a rabbit serum to linear peptides of protein N of SARS-CoV Urbani (Rabbit serum linear peptides) [4]: 0.1; Binding of a rabbit serum to looped/cyclic peptides of protein N of SARS-CoV Urbani (Rabbit serum looped peptides) [4]: 0.4
2 | DNVILLNKHIDAYKT | 0.1 | 0.2 | 0.2 | 0.4 | 0.1 | 0.3 | 0.2 | 0.4 | 0.1 | 0.2 | 0.6 | 0.7 | 0.6 | 0.7 | 0.5 | 0.5 | 0.2 | 0.3 | 0.6 | 0.8 | Control Serum Blood-Bank Looped peptides [3]: 0.7; Control serum Blood-bank linear peptides [3]: 0.5; Control serum LUMC linear peptides [3]: 0.6; Control serum LUMC looped peptides [3]: 0.7; Binding of a rabbit serum to linear peptides of protein N of SARS-CoV Urbani (Rabbit serum linear peptides) [4]: 0.1; Binding of a rabbit serum to looped/cyclic peptides of protein N of SARS-CoV Urbani (Rabbit serum looped peptides) [4]: 0.6
3 | DQIGYYRRATRRVRG | 0.1 | 0.3 | 0.2 | 0.3 | 0.1 | 0.2 | 0.3 | 0.5 | 0.2 | 0.3 | 0.7 | 0.9 | 0.6 | 0.8 | 0.5 | 0.5 | 0.4 | 0.6 | 0.6 | 0.7 | Binding of Control Serum Blood-Bank to Looped peptides [3]: 0.8; Binding of Control serum Blood-bank to linear peptides [3]: 0.8; Binding of Control serum LUMC to linear peptides [3]: 0.7; Binding of Control serum LUMC to looped peptides [3]: 0.7; Recognition of the peptide by the rabbit serum [4]: recognized
